According to US6355799B1, “Substituted benzene compounds, process for their preparation, and herbicidal and defoliant compositions containing them” (ISK Americas Incorporated, priority 1997, dated 2002):

Experiments:
Assay type in all cases: in vivo
[1] = tested on: field corn (Zea mays L., var. Dekalb 535, CORN); test: Post-emerge test, crop safety; settings: rating scale 0-100 (0 no damage, 100 complete death), 14 days after application
Method in brief: (§1)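 Fourteen days after spraying, crop and weed injury was graded visually from 0, no effect, to 100, every plant dead. Test substances were dissolved in acetone and applied at 15–1000 g ai/ha with a flat-fan nozzle. Application was either pre-emergence, one day after sowing, or post-emergence at the 2–3 leaf stage.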

[2] = tested on: upland rice (Oryza sp., var. Tebonnet, RICE); test: Post-emerge test, crop safety; settings: rating scale 0-100 (0 no damage, 100 complete death), 14 days after application
Method in brief: as §1

[3] = tested on: johnsongrass (Sorghum halepense, SORHA); test: Post-emerge test, greenhouse herbicide activity screening; settings: rating scale 0-100 (0 no damage, 100 complete death), 14 days after application
Method in brief: (§2)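 Applied at 15–1000 g ai/ha from acetone in 187 l/ha spray volume. Post-emergence applications included 0.25% v/v non-ionic surfactant and reached plants sown 8–21 days before. Pre-emergence applications were incorporated by surface watering. Efficacy or crop damage was rated on a 0–100 scale after 14 days.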

[4] = tested on: barnyardgrass (Echinochloa crus-galli, ECHCG); test: as above; settings: rating scale 0-100 (0 no damage, 100 complete death), 14 days after application
Method in brief: as §2

[5] = tested on: velvetleaf (Abutilon theophrasti, ABUTH); test: as above; settings: rating scale 0-100 (0 no damage, 100 complete death), 14 days after application
Method in brief: as §2

[6] = tested on: green foxtail (Setaria viridis, SETVI); test: as above; settings: rating scale 0-100 (0 no damage, 100 complete death), 14 days after application
Method in brief: as §2

[7] = tested on: sicklepod (Cassia obtusifolia, CASOB); test: as above; settings: rating scale 0-100 (0 no damage, 100 complete death), 14 days after application
Method in brief: as §2

[8] = tested on: ivyleaf morningglory (Ipomoea hederacea, IPOHE); test: as above; settings: rating scale 0-100 (0 no damage, 100 complete death), 14 days after application
Method in brief: as §2

[9] = tested on: lambsquarters (Chenopodium album, CHEAL); test: as above; settings: rating scale 0-100 (0 no damage, 100 complete death), 14 days after application
Method in brief: as §2

[10] = tested on: large crabgrass (Digitaria sanguinalis, DIGSA); test: as above; settings: rating scale 0-100 (0 no damage, 100 complete death), 14 days after application
Method in brief: as §2

[11] = tested on: redroot pigweed (Amaranthus retroflexus, AMARE); test: as above; settings: rating scale 0-100 (0 no damage, 100 complete death), 14 days after application
Method in brief: as §2

[12] = tested on: field corn (Zea mays L., var. Dekalb 535, CORN); test: Pre-emerge test, crop safety; settings: rating scale 0-100, 14 days after application
Method in brief: (§3)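 Rating: 0–100 visual injury, 14 DAA. Application: acetone, 187 l/ha, 15–1000 g ai/ha, flat-fan track sprayer with nozzle 40–45 cm above soil or canopy. Post-emerge runs used 0.25% v/v surfactant on 2–3 leaf plants.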

[13] = tested on: upland rice (Oryza sp., var. Tebonnet, RICE); test: Pre-emerge test, crop safety; settings: rating scale 0-100, 14 days after application
Method in brief: as §3

[14] = tested on: johnsongrass (Sorghum halepense, SORHA); test: Pre-emerge test, greenhouse herbicide activity screening; settings: rating scale 0-100, 14 days after application
Method in brief: as §1

[15] = tested on: barnyardgrass (Echinochloa crus-galli, ECHCG); test: as above; settings: rating scale 0-100, 14 days after application
Method in brief: as §1

[16] = tested on: velvetleaf (Abutilon theophrasti, ABUTH); test: as above; settings: rating scale 0-100, 14 days after application
Method in brief: as §1

[17] = tested on: green foxtail (Setaria viridis, SETVI); test: as above; settings: rating scale 0-100, 14 days after application
Method in brief: as §1

[18] = tested on: sicklepod (Cassia obtusifolia, CASOB); test: as above; settings: rating scale 0-100, 14 days after application
Method in brief: as §1

[19] = tested on: ivyleaf morningglory (Ipomoea hederacea, IPOHE); test: as above; settings: rating scale 0-100, 14 days after application
Method in brief: as §1

[20] = tested on: lambsquarters (Chenopodium album, CHEAL); test: as above; settings: rating scale 0-100, 14 days after application
Method in brief: as §1

[21] = tested on: large crabgrass (Digitaria sanguinalis, DIGSA); test: as above; settings: rating scale 0-100, 14 days after application
Method in brief: as §1

[22] = tested on: redroot pigweed (Amaranthus retroflexus, AMARE); test: as above; settings: rating scale 0-100, 14 days after application
Method in brief: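 Sandy loam pots; pre-emerge: sown 1 d pre-spray, surface-watered after, then bottom-watered. Post-emerge: sown 8–21 d before, 2–3 leaf stage, + 0.25% v/v NIS, bottom-watered. Acetone, 187 l/ha track spray, 15–1000 g ai/ha. 0–100 injury score, day 14.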

## CCCCCCOC(=O)C(C)(Cl)Cc1c(OC)c(Cl)cc(F)c1-n1c(=O)cc(C(F)(F)F)n(C)c1=O (centres unmarked) [14-38]
[1]; Rate 63 g ai/ha
  Post-emerge phytotoxicity rating CORN (crop damage): 50
[1]; Rate 250 g ai/ha
  Post-emerge phytotoxicity rating CORN (crop damage): 100
[2]; Rate 63 g ai/ha
  Post-emerge phytotoxicity rating RICE (crop damage): 0
[2]; Rate 250 g ai/ha
  Post-emerge phytotoxicity rating RICE (crop damage): 40
[3]; Rate 63 g ai/ha
  Post-emerge Herbicidal Activity, phytotoxicity rating SORHA: 0
[3]; Rate 250 g ai/ha
  Post-emerge Herbicidal Activity, phytotoxicity rating SORHA: 30
[4]; Rate 63 g ai/ha
  Post-emerge Herbicidal Activity, phytotoxicity rating ECHCG: 100
[4]; Rate 250 g ai/ha
  Post-emerge Herbicidal Activity, phytotoxicity rating ECHCG: 100
[5]; Rate 63 g ai/ha
  Post-emerge Herbicidal Activity, phytotoxicity rating ABUTH: 100
[5]; Rate 250 g ai/ha
  Post-emerge Herbicidal Activity, phytotoxicity rating ABUTH: 100
[6]; Rate 63 g ai/ha
  Post-emerge Herbicidal Activity, phytotoxicity rating SETVI: 90
[6]; Rate 250 g ai/ha
  Post-emerge Herbicidal Activity, phytotoxicity rating SETVI: 100
[7]; Rate 63 g ai/ha
  Post-emerge Herbicidal Activity, phytotoxicity rating CASOB: 0
[7]; Rate 250 g ai/ha
  Post-emerge Herbicidal Activity, phytotoxicity rating CASOB: 0
[8]; Rate 63 g ai/ha
  Post-emerge Herbicidal Activity, phytotoxicity rating IPOHE: 70
[8]; Rate 250 g ai/ha
  Post-emerge Herbicidal Activity, phytotoxicity rating IPOHE: 70
[9]; Rate 63 g ai/ha
  Post-emerge Herbicidal Activity, phytotoxicity rating CHEAL: 100
[9]; Rate 250 g ai/ha
  Post-emerge Herbicidal Activity, phytotoxicity rating CHEAL: 100
[10]; Rate 63 g ai/ha
  Post-emerge Herbicidal Activity, phytotoxicity rating DIGSA: 95
[10]; Rate 250 g ai/ha
  Post-emerge Herbicidal Activity, phytotoxicity rating DIGSA: 100
[11]; Rate 63 g ai/ha
  Post-emerge Herbicidal Activity, phytotoxicity rating AMARE: 100
[11]; Rate 250 g ai/ha
  Post-emerge Herbicidal Activity, phytotoxicity rating AMARE: 100
[12]; 63 g ai/ha
  Pre-emerge phytotoxicity rating, crop damage CORN: 0
[12]; 250 g ai/ha
  Pre-emerge phytotoxicity rating, crop damage CORN: 0
[13]; 63 g ai/ha
  Pre-emerge phytotoxicity rating, crop damage RICE: 0
[13]; 250 g ai/ha
  Pre-emerge phytotoxicity rating, crop damage RICE: 30
[14]; 63 g ai/ha
  Pre-emerge herbicidal activity, phytotoxicity rating SORHA: 0
[14]; 250 g ai/ha
  Pre-emerge herbicidal activity, phytotoxicity rating SORHA: 0
[15]; 63 g ai/ha
  Pre-emerge herbicidal activity, phytotoxicity rating ECHCG: 0
[15]; 250 g ai/ha
  Pre-emerge herbicidal activity, phytotoxicity rating ECHCG: 70
[16]; 63 g ai/ha
  Pre-emerge herbicidal activity, phytotoxicity rating ABUTH: 40
[16]; 250 g ai/ha
  Pre-emerge herbicidal activity, phytotoxicity rating ABUTH: 100
[17]; 63 g ai/ha
  Pre-emerge herbicidal activity, phytotoxicity rating SETVI: 0
[17]; 250 g ai/ha
  Pre-emerge herbicidal activity, phytotoxicity rating SETVI: 80
[18]; 63 g ai/ha
  Pre-emerge herbicidal activity, phytotoxicity rating CASOB: 0
[18]; 250 g ai/ha
  Pre-emerge herbicidal activity, phytotoxicity rating CASOB: 0
[19]; 63 g ai/ha
  Pre-emerge herbicidal activity, phytotoxicity rating IPOHE: 0
[19]; 250 g ai/ha
  Pre-emerge herbicidal activity, phytotoxicity rating IPOHE: 0
[20]; 63 g ai/ha
  Pre-emerge herbicidal activity, phytotoxicity rating CHEAL: 90
[20]; 250 g ai/ha
  Pre-emerge herbicidal activity, phytotoxicity rating CHEAL: 100
[21]; 63 g ai/ha
  Pre-emerge herbicidal activity, phytotoxicity rating DIGSA: 0
[21]; 250 g ai/ha
  Pre-emerge herbicidal activity, phytotoxicity rating DIGSA: 90
[22]; 63 g ai/ha
  Pre-emerge herbicidal activity, phytotoxicity rating AMARE: 99
[22]; 250 g ai/ha
  Pre-emerge herbicidal activity, phytotoxicity rating AMARE: 100
